According to US12052991B2, “Substituted pyridinyloxybenzenes and salts thereof and use thereof as herbicidal agents” (Bayer Aktiengesellschaft, priority 2018, dated 2024):

Assays:
Assay type in all cases: in vivo
[1] = system: Matricaria inodora (MATIN); experiment: Herbicidal post-emergence action (Table B7); settings: rated visually after about 3 weeks, 100% = plants have died, 0% = like control plants
Method: Seeds of mono- and dicotyledonous weed plants were placed in plastic pots in sandy loam soil (doubly sown with in each case one species of mono- or dicotyledonous weed plants per pot), covered with soil and cultivated in a greenhouse under controlled growth conditions. 2 to 3 weeks after sowing, the test plants were treated at the one-leaf stage. The compounds of the invention, formulated in the form of wettable powders (WP) or as emulsion concentrates (EC), were applied onto the green parts of the plants as aqueous suspension or emulsion with addition of 0.5% additive at a water application rate of 600 liters per hectare (converted). After the test plants had been kept in the greenhouse under optimum growth conditions for about 3 weeks, the activity of the preparations was rated visually in comparison to untreated controls. For example, 100% activity=the plants have died, 0% activity=like control plants. Tables B1 to B12 below show the effects of selected compounds of the general formula (I) according to Table 1 on various harmful plants and an application rate corresponding to 1280 or 320 g/ha, which were obtained by the experimental procedure mentioned above.

[2] = system: harmful plants ABUTH, AMARE, ECHCG, LOLRI, MATIN, POAAN, SETVI, STEME, ALOMY, DIGSA, KCHSC and VERPE; experiment: Herbicidal pre-emergence action (test C), summary of Tables C1-C12; settings: application rate of 1280 or 320 g of active ingredient per hectare; summary in words
How it was run: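 Visual % damage versus untreated plants (0% = like control, 100% = died) was scored after about 3 weeks in the greenhouse. Before emergence, seeds sown in sandy loam got a soil-surface spray of compound as WP or EC plus 0.5% additive, using 600 L/ha water at rates of 1280 or 320 g/ha.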

[3] = system: Abutilon theophrasti (ABUTH); experiment: Herbicidal post-emergence action (Table B5); settings: rated visually after about 3 weeks, 100% = plants have died, 0% = like control plants
How it was run: (§1)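 Activity was scored visually against untreated plants roughly 3 weeks after treatment, 0% meaning like control and 100% plant death. Application was post-emergence onto green parts at the one-leaf stage, as aqueous suspension/emulsion with 0.5% additive, 600 l/ha, delivering 1280 or 320 g/ha to greenhouse plants in sandy loam.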

[4] = system: harmful plants ABUTH, AMARE, ECHCG, LOLRI, MATIN, POAAN, SETVI, STEME, ALOMY, DIGSA, KCHSC and VERPE; experiment: Herbicidal post-emergence action, summary of Tables B1-B12; settings: application rate of 1280 or 320 g of active ingredient per hectare; summary in words
How it was run: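 Activity scored by eye roughly 3 weeks post-treatment against untreated plants, from 0% (no effect) to 100% (plants dead). Application rates were 1280 or 320 g/ha, as aqueous WP/EC spray plus 0.5% additive at 600 L/ha, onto one-leaf-stage weeds grown 2–3 weeks in sandy loam.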

[5] = system: Veronica persica (VERPE); experiment: Herbicidal pre-emergence action, test C (Table C12); settings: dosage 1280 g/ha, visual scoring vs untreated controls
How it was run: (§2)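 Application rates of 1280 or 320 g/ha were delivered as WP or EC formulations in water with 0.5% additive, 600 L/ha, onto soil covering freshly sown seeds in sandy loam. Pots stayed under good greenhouse growth conditions, and efficacy was rated as visual percent after about 3 weeks.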

[6] = system: Stellaria media (STEME); experiment: Herbicidal post-emergence action (Table B8); settings: dosage 1280 g/ha; visual rating about 3 weeks after treatment; 100% = plants have died, 0% = like control plants
How it was run: as §1

[7] = system: Poa annua (POAAN); experiment: Herbicidal post-emergence action (Table B3); settings: rated visually after about 3 weeks, 100% = plants have died, 0% = like control plants
How it was run: as §1

[8] = system: Setaria viridis (SETVI); experiment: Herbicidal pre-emergence action, test C (Table C4); settings: dosage 1280 g/ha; visual scoring after about 3 weeks; 100% = plants have died, 0% = like control plants
How it was run: as §2

[9] = system: Poa annua (POAAN); experiment: Herbicidal pre-emergence action, test C (Table C3); settings: visual scoring after about 3 weeks, 100% = plants have died, 0% = like control plants
How it was run: as §2

[10] = system: Veronica persica (VERPE); experiment: Herbicidal post-emergence action (Table B12); settings: visual rating about 3 weeks after treatment, 100% = plants have died, 0% = like control plants
How it was run: as §1

[11] = system: Alopecurus myosuroides (ALOMY); experiment: Herbicidal pre-emergence action, test C (Table C9); settings: dosage 1280 g/ha; visual scoring after about 3 weeks; 100% = plants have died, 0% = like control plants
How it was run: as §2

[12] = system: Digitaria sanguinalis (DIGSA); experiment: Herbicidal pre-emergence action, test C (Table C10); settings: visual scoring after about 3 weeks, 100% = plants have died, 0% = like control plants
How it was run: as §2

[13] = system: Amaranthus retroflexus (AMARE); experiment: Herbicidal post-emergence action (Table B6); settings: visual rating about 3 weeks after treatment, 100% = plants have died, 0% = like control plants
How it was run: as §1

[14] = system: Amaranthus retroflexus (AMARE); experiment: Herbicidal pre-emergence action, test C (Table C6); settings: visual scoring after about 3 weeks, 100% = plants have died, 0% = like control plants
How it was run: as §2

## Fc1cc(Cl)cnc1Oc1ccccc1-c1ccc(Cl)cn1 [Example 1-74]
[1]; 320 g/ha
  Post-emergence action against Matricaria inodora (MATIN): 100%
[1]; 1280 g/ha
  Post-emergence action against Matricaria inodora (MATIN): 100%
[2]
  herbicidal activity against the harmful plants of Tables C1-C12 in pre-emergence treatment: very good herbicidal activity
[3]; 320 g/ha
  Post-emergence action against Abutilon theophrasti (ABUTH): 90%
[3]; 1280 g/ha
  Post-emergence action against Abutilon theophrasti (ABUTH): 100%
[4]
  herbicidal activity against the harmful plants of Tables B1-B12 in post-emergence treatment: very good herbicidal activity
[5]
  Pre-emergence action against Veronica persica (VERPE): 90%
[6]
  Post-emergence action against Stellaria media (STEME): 90%
[7]; 320 g/ha
  Post-emergence action against Poa annua (POAAN): 100%
[7]; 1280 g/ha
  Post-emergence action against Poa annua (POAAN): 100%
[8]
  Pre-emergence action against Setaria viridis (SETVI): 100%
[9]; dosage 320 g/ha
  Pre-emergence action against Poa annua (POAAN): 100%
[9]; dosage 1280 g/ha
  Pre-emergence action against Poa annua (POAAN): 100%
[10]; dosage 320 g/ha
  Post-emergence action against Veronica persica (VERPE): 100%
[10]; dosage 1280 g/ha
  Post-emergence action against Veronica persica (VERPE): 100%
[11]
  Pre-emergence action against Alopecurus myosuroides (ALOMY): 100%
[12]; dosage 320 g/ha
  Pre-emergence action against Digitaria sanguinalis (DIGSA): 90%
[12]; dosage 1280 g/ha
  Pre-emergence action against Digitaria sanguinalis (DIGSA): 100%
[13]; dosage 320 g/ha
  Post-emergence action against Amaranthus retroflexus (AMARE): 100%
[13]; dosage 1280 g/ha
  Post-emergence action against Amaranthus retroflexus (AMARE): 100%
[14]; dosage 320 g/ha
  Pre-emergence action against Amaranthus retroflexus (AMARE): 90%
[14]; dosage 1280 g/ha
  Pre-emergence action against Amaranthus retroflexus (AMARE): 90%
